“And” between values parts separate entries of the source, which are not always exact repeats. Identical values can stand only once.
Settings: transient hot wire

O=C(C(F)(F)C(F)(F)F)C(F)(C(F)(F)F)C(F)(F)F [dodecafluoro-2-methylpentan-3-one]
Settings	thermal conductivity
302.17 K, 68802 kPa, Liquid	0.07801 W/m/K
302.17 K, 68805 kPa, Liquid	0.07819 W/m/K
302.18 K, 185 kPa, Liquid	0.05684 W/m/K
302.19 K, 184 kPa, Liquid	0.05683 W/m/K
302.19 K, 38646 kPa, Liquid	0.07042 W/m/K
302.19 K, 38653 kPa, Liquid	0.07047 W/m/K
302.2 K, 4505 kPa, Liquid	0.05895 W/m/K
302.2 K, 4509 kPa, Liquid	0.05896 W/m/K
302.2 K, 22376 kPa, Liquid	0.06575 W/m/K
302.2 K, 22378 kPa, Liquid	0.06574 W/m/K
302.21 K, 181 kPa, Liquid	0.05683 W/m/K and 0.05685 W/m/K
302.21 K, 9730 kPa, Liquid	0.06078 W/m/K
302.21 K, 9731 kPa, Liquid	0.06057 W/m/K
302.22 K, 29975 kPa, Liquid	0.06769 W/m/K and 0.06766 W/m/K
302.23 K, 38 kPa, Gas	0.01171 W/m/K
302.24 K, 34 kPa, Gas	0.01182 W/m/K
302.24 K, 36 kPa, Gas	0.01189 W/m/K
302.25 K, 34 kPa, Gas	0.01189 W/m/K
302.26 K, 4429 kPa, Liquid	0.05855 W/m/K
302.26 K, 4432 kPa, Liquid	0.05857 W/m/K
302.26 K, 15648 kPa, Liquid	0.06339 W/m/K
302.26 K, 22430 kPa, Liquid	0.06528 W/m/K
302.27 K, 15647 kPa, Liquid	0.06339 W/m/K
302.27 K, 22437 kPa, Liquid	0.06518 W/m/K
302.29 K, 121 kPa, Liquid	0.05692 W/m/K
302.3 K, 121 kPa, Liquid	0.057 W/m/K
302.31 K, 92 kPa, Liquid	0.05649 W/m/K
302.31 K, 97 kPa, Liquid	0.05641 W/m/K
302.35 K, 9934 kPa, Liquid	0.0612 W/m/K
302.35 K, 9940 kPa, Liquid	0.06118 W/m/K
302.46 K, 4504 kPa, Liquid	0.05889 W/m/K
302.47 K, 4505 kPa, Liquid	0.05889 W/m/K
302.48 K, 184 kPa, Liquid	0.05681 W/m/K
302.49 K, 184 kPa, Liquid	0.05679 W/m/K
302.5 K, 181 kPa, Liquid	0.05679 W/m/K and 0.05678 W/m/K
302.52 K, 15868 kPa, Liquid	0.06291 W/m/K
302.53 K, 15872 kPa, Liquid	0.06281 W/m/K
302.54 K, 68548 kPa, Liquid	0.07804 W/m/K
302.54 K, 68549 kPa, Liquid	0.07799 W/m/K
302.57 K, 121 kPa, Liquid	0.05687 W/m/K and 0.05695 W/m/K
302.58 K, 58446 kPa, Liquid	0.0756 W/m/K
302.59 K, 58445 kPa, Liquid	0.07563 W/m/K
302.6 K, 34 kPa, Gas	0.01198 W/m/K
302.61 K, 36 kPa, Gas	0.01183 W/m/K
302.61 K, 38 kPa, Gas	0.01193 W/m/K
302.61 K, 68790 kPa, Liquid	0.07804 W/m/K
302.61 K, 68801 kPa, Liquid	0.07795 W/m/K
302.63 K, 48154 kPa, Liquid	0.07294 W/m/K
302.63 K, 48162 kPa, Liquid	0.07285 W/m/K
302.65 K, 15984 kPa, Liquid	0.06295 W/m/K
302.65 K, 15986 kPa, Liquid	0.06304 W/m/K
302.68 K, 38648 kPa, Liquid	0.07035 W/m/K
302.69 K, 38638 kPa, Liquid	0.07035 W/m/K
302.72 K, 9724 kPa, Liquid	0.06082 W/m/K
302.72 K, 9726 kPa, Liquid	0.06095 W/m/K
302.73 K, 29973 kPa, Liquid	0.06771 W/m/K
302.74 K, 29982 kPa, Liquid	0.06772 W/m/K
302.78 K, 4430 kPa, Liquid	0.0586 W/m/K
302.79 K, 4428 kPa, Liquid	0.05856 W/m/K
302.79 K, 22448 kPa, Liquid	0.06525 W/m/K
302.8 K, 22443 kPa, Liquid	0.06527 W/m/K
302.85 K, 95 kPa, Liquid	0.05658 W/m/K
302.86 K, 96 kPa, Liquid	0.05645 W/m/K
303.01 K, 36 kPa, Gas	0.01199 W/m/K
303.02 K, 38 kPa, Gas	0.01194 W/m/K
303.03 K, 35 kPa, Gas	0.01196 W/m/K
303.04 K, 68537 kPa, Liquid	0.07796 W/m/K
303.04 K, 68564 kPa, Liquid	0.07806 W/m/K
303.07 K, 15868 kPa, Liquid	0.06292 W/m/K
303.07 K, 15869 kPa, Liquid	0.06282 W/m/K
303.1 K, 58422 kPa, Liquid	0.07541 W/m/K
303.1 K, 58439 kPa, Liquid	0.07546 W/m/K
303.11 K, 68765 kPa, Liquid	0.07805 W/m/K
303.11 K, 68772 kPa, Liquid	0.07794 W/m/K
303.16 K, 48157 kPa, Liquid	0.07292 W/m/K
303.17 K, 48152 kPa, Liquid	0.07285 W/m/K
303.2 K, 15974 kPa, Liquid	0.06276 W/m/K
303.2 K, 15979 kPa, Liquid	0.06281 W/m/K
303.22 K, 38643 kPa, Liquid	0.07047 W/m/K
303.23 K, 38644 kPa, Liquid	0.0705 W/m/K
303.29 K, 9716 kPa, Liquid	0.06072 W/m/K
303.29 K, 9741 kPa, Liquid	0.06069 W/m/K
303.3 K, 29978 kPa, Liquid	0.06778 W/m/K
303.3 K, 29993 kPa, Liquid	0.06773 W/m/K

Source: the NIST ThermoML archive (doi:10.1021/acs.jced.8b00132)
